In US6544524B2, “Ethyl acetate extract from guignardia used to treat an individual infected by fungi or bacteria” (Fundacao Oswaldo Cruz - FIOCRUZ, priority 2001, dated 2003):

Columns and labels:
[1] = tested on: Escherichia coli (ATCC 25922); test: bioautographical method on a layer of agar; type: cell-based; settings: against E. coli; Mueller-Hinton agar, 37° C., 24 hours, MTT
Method: (§1) The antimicrobial activity of this compound was detected employing the bioautographical method on a layer of agar (Rahalison,L.; Hamburger, M., Hostettmann, K.; Monod, M.; Frenk, E. Phytochemical Ananlysis.2.199-203.1991). The following micro-organisms were tested: Escherichia coli (ATCC 25922) and Staphylococcus aureus (ATCC 25923). The medium used was the Mueller-Hinton in agar (Oxoid). The cultures grew during the night in nutrient medium broth number 3 (Fluka). For the bioautographic test the cultures were standardised through successive dilutions in 10^5 cells/ml. The plaques were incubated at 37° C. for a period of 24 hours, sprayed with an aqueous solution of Methylthiazolyltetrazolium chloride (MTT)at 0.25% and then incubated for a further two hours at 37° C. The active fractions were detected under the form of white areas of inhibition on a lilac background.

[2] = tested on: Staphylococcus aureus (ATCC 25923); test: bioautographical method on a layer of agar; type: cell-based; settings: against S. aureus; Mueller-Hinton agar, 37° C., 24 hours, MTT
Method: as §1

Question: What does the source list for CC(C)C1(C(=O)O)OC(=O)/C(=C/c2ccccc2)O1 (centres unmarked) [compound of the invention, (Z)-5-benzylidene-2-isopropyl-4-oxo-1.3-dioxolane-2-carboxyl acid]?
Answer: antibacterial activity [1]: 150 nM; antibacterial activity [2]: 75 nM
